Reference: ChEMBL document CHEMBL1147906, “A comparative study of mesoionic compounds in Leishmania sp. and toxicity evaluation” (Eur J Med Chem, 2007)

Key:
[1] = system: Leishmania braziliensis; assay: Antileishmanial activity against Leishmania braziliensis MCAN/BR/98/R619 promastigotes; type: functional; conditions: read-out: ED50 (the source's name)
[2] = Cytotoxicity against BALB/c mouse peritoneal macrophages assessed as cell viability after 24 hrs by MTT assay; type: cell-based, Peritoneal macrophage cell; conditions: read-out: TD50
[3] = system: Leishmania chagasi; assay: Antileishmanial activity against Leishmania chagasi MCAN/BR/97/P142 promastigotes; type: functional; conditions: read-out: ED50 (the source's name)

Structure (SMILES): Clc1cccc(/C=C/c2sc(Nc3ccccc3)n[n+]2-c2ccccc2)c1
- EC50 [1]: 1.72 µM
- CC50 at 24 h [2]: 6.23 µM
- EC50 [3]: 5.17 µM

Structure (SMILES): Brc1cccc(/C=C/c2sc(Nc3ccccc3)n[n+]2-c2ccccc2)c1
- EC50 [1]: 25.9 µM
- CC50 at 24 h [2]: 2.47 µM
- EC50 [3]: 145 µM

Structure (SMILES): Oc1ccc(/C=C/c2sc(Nc3ccccc3)n[n+]2-c2ccccc2)cc1
- EC50 [1]: 376 µM
- CC50 at 24 h [2]: 32 µM
- EC50 [3]: 415 µM

Structure (SMILES): O=[N+]([O-])c1ccc(/C=C/c2sc(Nc3ccccc3)n[n+]2-c2ccccc2)cc1
- EC50 [1]: 70.8 µM
- CC50 at 24 h [2]: 5.49 µM
- EC50 [3]: 22.8 µM

Structure (SMILES): O=[N+]([O-])c1cccc(/C=C/c2sc(Nc3ccccc3)n[n+]2-c2ccccc2)c1
- EC50 [1]: 221 µM
- CC50 at 24 h [2]: 5.54 µM
- EC50 [3]: 23.6 µM

Structure (SMILES): Clc1ccc(/C=C/c2sc(Nc3ccccc3)n[n+]2-c2ccccc2)cc1
- EC50 [1]: 6.23 µM
- CC50 at 24 h [2]: 12 µM
- EC50 [3]: 13.2 µM

Structure (SMILES): COc1ccc(/C=C/c2sc(Nc3ccccc3)n[n+]2-c2ccccc2)cc1
- EC50 [1]: 46.2 µM
- CC50 at 24 h [2]: 1.13 µM
- EC50 [3]: 8.31 µM

Structure (SMILES): COc1cccc(/C=C/c2sc(Nc3ccccc3)n[n+]2-c2ccccc2)c1
- EC50 [1]: 30.6 µM
- CC50 at 24 h [2]: 0.61 µM
- EC50 [3]: 4.75 µM

Structure (SMILES): Brc1ccc(/C=C/c2sc(Nc3ccccc3)n[n+]2-c2ccccc2)cc1
- EC50 [1]: 2.93 µM
- CC50 at 24 h [2]: 6.59 µM
- EC50 [3]: 9.97 µM

Structure (SMILES): N#Cc1ccc(/C=C/c2sc(Nc3ccccc3)n[n+]2-c2ccccc2)cc1
- EC50 [1]: 28.1 µM
- CC50 at 24 h [2]: 441 µM
- EC50 [3]: 16 µM

Structure (SMILES): N=C(N)c1ccc(OCCCCCOc2ccc(C(=N)N)cc2)cc1 [PENTAMIDINE]
- EC50 [1]: 64.2 µM
- CC50 at 24 h [2]: 2.21 µM
- EC50 [3]: 27.5 µM

Structure (SMILES): Cc1ccc(/C=C/c2sc(Nc3ccccc3)n[n+]2-c2ccccc2)cc1
- EC50 [1]: 20.7 µM
- CC50 at 24 h [2]: 4.94 µM
- EC50 [3]: 31.1 µM

Structure (SMILES): Fc1ccc(/C=C/c2sc(Nc3ccccc3)n[n+]2-c2ccccc2)cc1
- EC50 [1]: 5.1 µM
- CC50 at 24 h [2]: 5.82 µM
- EC50 [3]: 3.42 µM

Structure (SMILES): C(=C\c1sc(Nc2ccccc2)n[n+]1-c1ccccc1)/c1ccccc1
- EC50 [1]: 49.6 µM
- CC50 at 24 h [2]: 3.06 µM
- EC50 [3]: 22.8 µM

Structure (SMILES): CCOc1ccc(/C=C/c2sc(Nc3ccccc3)n[n+]2-c2ccccc2)cc1
- EC50 [1]: 13 µM
- CC50 at 24 h [2]: 9.73 µM
- EC50 [3]: 33.3 µM
